{"source": "patent US20240059673A1", "about": "“SUBSTITUTED INDOLE COMPOUNDS” (Gilead Sciences, Inc., priority 2020, published 2024)", "key": {"TLR8": {"target": "T1, TLR8 (Homo sapiens, UniProt Q9NR97)", "T1 construct": "lymphocytes, monocytes and dendritic cells that express TLR7, TLR8 and TLR9; endogenous in cells; host or cells: cryopreserved human PBMCs from healthy donors", "T1 sequence (Q9NR97 27-1041)": "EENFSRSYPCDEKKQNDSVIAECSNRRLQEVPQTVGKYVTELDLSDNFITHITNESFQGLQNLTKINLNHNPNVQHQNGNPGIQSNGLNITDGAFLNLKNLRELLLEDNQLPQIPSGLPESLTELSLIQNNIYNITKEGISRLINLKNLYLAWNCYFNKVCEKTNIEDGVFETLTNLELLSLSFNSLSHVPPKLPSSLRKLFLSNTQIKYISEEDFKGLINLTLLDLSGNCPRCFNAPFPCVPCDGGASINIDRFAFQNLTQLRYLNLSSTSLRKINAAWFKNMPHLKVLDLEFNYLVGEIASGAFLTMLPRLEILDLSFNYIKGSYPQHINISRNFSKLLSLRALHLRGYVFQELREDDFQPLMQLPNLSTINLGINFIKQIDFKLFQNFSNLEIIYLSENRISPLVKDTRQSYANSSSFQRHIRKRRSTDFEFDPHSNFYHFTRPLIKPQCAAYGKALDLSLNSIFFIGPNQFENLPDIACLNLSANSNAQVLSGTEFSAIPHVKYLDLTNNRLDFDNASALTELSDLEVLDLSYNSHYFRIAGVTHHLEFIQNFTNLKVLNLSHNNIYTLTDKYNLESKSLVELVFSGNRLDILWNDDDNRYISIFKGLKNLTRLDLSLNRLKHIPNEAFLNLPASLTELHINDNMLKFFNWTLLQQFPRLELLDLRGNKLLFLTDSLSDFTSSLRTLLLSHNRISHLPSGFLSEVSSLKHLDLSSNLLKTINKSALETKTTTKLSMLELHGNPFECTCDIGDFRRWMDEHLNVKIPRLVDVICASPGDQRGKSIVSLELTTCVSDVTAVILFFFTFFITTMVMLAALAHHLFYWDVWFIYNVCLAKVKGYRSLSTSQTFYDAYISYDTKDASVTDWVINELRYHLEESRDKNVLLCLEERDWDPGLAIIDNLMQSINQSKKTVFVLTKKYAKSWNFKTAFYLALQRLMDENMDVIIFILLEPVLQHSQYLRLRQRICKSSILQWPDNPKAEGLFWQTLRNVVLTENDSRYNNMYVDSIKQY", "assay": "TLR8 human PBMC cell-based assay", "conditions": "human PBMCs; TLR8 agonist Compound A 800 nM; 6 hours; cytokines (TNFa and IL12p40) in supernatant; Table 2; read-out: TLR-8 EC50", "description": "TLR8 Human Peripheral Blood Mononuclear Cell (PBMC) Cell-Based Assay\nCryopreserved human PBMCs from healthy donors were thawed and resuspended in RPMI-1640 media with L-glutamine (Corning) supplemented with 10% Fetal Bovine Serum (Hyclone) and 1× Penicillin-Streptomycin (Corning). After counting, the cell density was adjusted to 2 million cells/ml and incubated for 1 hour at 37° C., 5% CO2 for recovery. Following the recovery, the cells were plated by adding 50p per well (100,000 cells) to 384-well cell culture plates (Greiner) containing 250 nl of test antagonists in 100% DMSO per well, in a 10 points dose response in quadruplicates. PBMCs were incubated in the presence of antagonists for one hour at 37° C., 5% CO2 before being stimulated with TLR8 agonist. Compound A (Gilead Sciences, U.S. Pat. No. 10,285,990) was used as the TLR8 agonist at a final concentration of 800 nM. PBMCs were incubated in the presence of antagonist and the TLR8 agonist for an additional 6 hours at 37° C., 5% CO2. At the end of the incubation, the cell culture plates were centrifuged at 500 g for 5 min, and the cell culture supernatant was collected. The level of cytokines (TNFa and IL12p40) in the supernatant was measured by electrochemiluminescence immunoassays (Mesoscale Discovery) following manufacturer's recommended protocols. The level of cytokine measured was plotted against the antagonist concentration and fitted to a sigmoidal function to determine the EC50, which are shown below in Table 2."}, "[1]": {"target": "cloned hERG potassium channel (Homo sapiens, UniProt Q12809)", "sequence (Q12809 whole entry)": "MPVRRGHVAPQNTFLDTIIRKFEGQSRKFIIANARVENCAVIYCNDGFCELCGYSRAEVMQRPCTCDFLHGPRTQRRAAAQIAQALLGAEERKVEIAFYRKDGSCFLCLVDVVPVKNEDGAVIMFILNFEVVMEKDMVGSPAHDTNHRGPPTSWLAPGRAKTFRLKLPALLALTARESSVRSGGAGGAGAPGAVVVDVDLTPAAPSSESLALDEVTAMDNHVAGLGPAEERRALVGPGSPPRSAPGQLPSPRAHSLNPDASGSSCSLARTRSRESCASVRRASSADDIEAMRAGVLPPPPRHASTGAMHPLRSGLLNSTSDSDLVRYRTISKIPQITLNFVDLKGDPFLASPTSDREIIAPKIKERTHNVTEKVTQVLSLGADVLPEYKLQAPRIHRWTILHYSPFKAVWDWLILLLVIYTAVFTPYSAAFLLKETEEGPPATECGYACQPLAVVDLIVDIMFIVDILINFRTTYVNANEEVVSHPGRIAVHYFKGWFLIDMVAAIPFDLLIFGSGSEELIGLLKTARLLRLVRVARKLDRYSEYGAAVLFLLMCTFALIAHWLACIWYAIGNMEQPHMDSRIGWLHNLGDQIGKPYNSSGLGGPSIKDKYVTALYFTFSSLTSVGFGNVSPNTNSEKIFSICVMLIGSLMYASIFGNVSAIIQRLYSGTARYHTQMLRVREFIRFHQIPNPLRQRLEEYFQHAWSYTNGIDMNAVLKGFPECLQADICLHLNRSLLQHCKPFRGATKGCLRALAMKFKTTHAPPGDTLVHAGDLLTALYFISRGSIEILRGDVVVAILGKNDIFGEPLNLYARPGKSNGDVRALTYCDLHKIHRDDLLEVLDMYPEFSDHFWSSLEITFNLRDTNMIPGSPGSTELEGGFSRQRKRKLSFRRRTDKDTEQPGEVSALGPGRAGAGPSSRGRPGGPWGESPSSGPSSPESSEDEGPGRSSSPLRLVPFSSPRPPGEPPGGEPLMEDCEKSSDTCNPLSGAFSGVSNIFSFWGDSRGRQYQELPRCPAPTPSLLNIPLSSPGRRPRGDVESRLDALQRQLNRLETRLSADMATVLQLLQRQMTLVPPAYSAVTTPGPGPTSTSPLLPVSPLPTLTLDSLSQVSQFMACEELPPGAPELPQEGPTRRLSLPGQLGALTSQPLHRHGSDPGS", "assay": "hERG FASTPatch assay (QPatch patch clamp)", "format": "cell-based", "conditions": "hERG stably expressed in cells; 1, 3, 10 and 30 uM; room temperature; Table 3", "description": "Human Ether-à-go-go-Related Gene (hERG) Assay\nThe FASTPatch® Assay (Charles River) was used to examine the in vitro effects of the compounds provided herein on the cloned hERG potassium channel encoded by the KCNHI2 gene and stably expressed in ITEK293T cells. Vehicle, test and control article formulations were prepared by diluting DMSO stock solutions in TIB-PS (HEPES-buffered physiological saline solution) and were delivered to cells via the QPatch robot pipetting system to a final concentration of 0.3% DMSO. Test compound final concentrations of 1, 3, 10 and 30 uM were applied to cells (n≥3, where n=the number of cells/concentration) in ascending order in at least three minute intervals separated by solution exchange. The positive control, 50 nM cisparide, was applied in the same manner. Cell membrane currents were recorded at room temperature with up to 48 parallel patch clamp amplifiers in the QPatch HT® or QPatch HTX® system, and only cells with validated whole-cell recordings (seal resistance ≥200 MQ and leak current ≤25% channel current) were used. Onset and block of hERG current was measured using a stimulus voltage pattern consisting of a 500 ms prepulse to −40 mV, a 2-second activating pulse to +40 mV, followed by a 2-second test pulse to −40 mV. The pulse pattern was repeated continuously at 10-second intervals from a holding potential of −80 mV. % Block={1−1/[1+([Test]/IC50)^N]}*100% Where [Test] is the concentration of test article, IC50 is the concentration of the test article producing half-maximal inhibition, N is the Hill coefficient and % Block is the percentage of current inhibited at each concentration of the test article. Nonlinear least squares fits will be solved with the Solver add-in for Excel 2000 or later (Microsoft, Redmon, WA). TurboSol analysis for test compound solubility was performed for each concentration tested using a Nephelostar reader measuring light scatter from a 635 nm laser source. Based on validation experiments, light scatter above four times the background level was considered an indication of the presence of particles in suspension.\nThe hERG IC50 values are provided below in Table 3."}}}
{"smiles": "Cc1cc(-c2ccc3c(C)c(-c4cnc(N5CCNCC5)nc4)[nH]c3c2)cc(C)n1", "note": "[Example 1, 6-(2,6-dimethylpyridin-4-yl)-3-methyl-2-(2-(piperazin-1-yl)pyrimidin-5-yl)-1H-indole]", "values": [{"measurement": "EC50", "setting": "TLR8", "result": 0.318, "unit": "µM"}]}
{"smiles": "Cc1cc(-c2ccc3c(C)c(-c4ccc(N5CCNCC5)nc4)[nH]c3c2)cc(C)n1", "note": "[Example 2, 6-(2,6-dimethylpyridin-4-yl)-3-methyl-2-(6-(piperazin-1-yl)pyridin-3-yl)-1H-indole]", "values": [{"measurement": "EC50", "setting": "TLR8", "result": 0.307, "unit": "µM"}, {"measurement": "IC50", "setting": "[1]", "result": 7, "unit": "µM"}]}
{"smiles": "Cc1c(-c2ccc(N3CCNCC3)nc2)[nH]c2cc(-c3cc(C)c4ncnn4c3)ccc12", "note": "[Example 4]", "values": [{"measurement": "EC50", "setting": "TLR8", "result": 0.0182, "unit": "µM"}, {"measurement": "IC50", "setting": "[1]", "result": 15.5, "unit": "µM"}]}
{"smiles": "Cc1c(-c2ccc(N3CCNCC3)nc2)[nH]c2cc(-c3ccc(C#N)c4ncccc34)ccc12", "note": "[Example 7]", "values": [{"measurement": "EC50", "setting": "TLR8", "result": 0.0215, "unit": "µM"}]}
{"smiles": "CCc1c(-c2ccc(N3CCNCC3)nc2)[nH]c2cc(-c3cc(C)c4ncnn4c3)ccc12", "note": "[Example 23]", "values": [{"measurement": "EC50", "setting": "TLR8", "result": 0.0347, "unit": "µM"}]}
{"smiles": "Cc1cc(-c2[nH]c3ccc(-c4ccc(N5CCNCC5)nc4)cc3c2C(C)C)cc(C)n1", "note": "[Example A, reference compound]", "values": [{"measurement": "IC50", "setting": "[1]", "result": 4.5, "unit": "µM"}]}
{"smiles": "Cc1cc(-c2[nH]c3ccc(-c4ccc(N5CCNCC5)nc4)cc3c2C(C)C)cn2ncnc12", "note": "[Example B, reference compound]", "values": [{"measurement": "IC50", "setting": "[1]", "result": 5.1, "unit": "µM"}]}
